# Peptide text beside a SMILES is read from it.
# Conditions: not given
row,SMILES,logP
1,CC12C=CC(=O)C=C1CCC1C2C(O)CC2(C)C1CCC2(O)C(=O)COC1OC(CO)C(O)C(O)C1O (stereo not given),0.27
2,CCCCCCCCNC(=O)c1[nH]nc(C)c1[N+](=O)[O-],3.48
3,O=c1[nH]c(=O)n([C@H]2C[C@H](O)[C@@H](CO)O2)cc1Br,-0.29
4,NCCCCCc1ccccn1,1.32
5,CC(=O)Nc1ccc(N(C)C)cc1,1
6,CC(C)N(C)/N=N/c1ccc(C(N)=O)cc1,2.02
7,CN(C)c1cccc2ccccc12,3.46
8,Clc1c(Cl)c(Cl)c2ccccc2c1Cl,5.75
9,CNS(=O)(=O)c1ccccc1,0.92
10,C=C1C(C)C2C(Cc3ccccc3)NC(=O)C23OC(=O)C=CC(O)CCCC(C)CC=CC3C1O (stereo not given),3.37
11,NN(c1ccccc1)c1ccccc1,2.8
12,CCCC(C)(C)c1ccc(C2CCCC(O)C2)c(O)c1 (stereo not given),4.82
13,CCCCC(=O)O,1.39
14,CCC1(c2ccccc2)C(=O)NC(=O)N(C(C)C)C1=O (stereo not given),2.58
15,NC(=O)c1ccc(O)cc1,0.33
16,O=C1CN=C(c2ccccc2)c2cc([N+](=O)[O-])ccc2N1,2.25
17,Clc1ccccc1-c1ccccc1,4.53
18,CC(=O)N(C)N=Nc1ccc(C)cc1,3.23
19,C[N+](C)(C)c1ccccc1.[I-],-2.74
20,Clc1ccc(Cl)c(Cl)c1Cl,4.6
21,COc1ccccc1-c1nc(N)nc(N)n1,0.58
22,CC(=O)Nc1ccc(OCC(O)CNC(C)C)cc1 (stereo not given),0.79
23,CCCCn1cnc2c(NC(C)=O)ncnc21,0.55

row,SMILES,logP
1,CCCCCCCCOC(=O)n1cnc(CC(NC(=O)C2CCC(=O)N2)C(=O)N2CCCC2C(N)=O)c1 (stereo not given),1.82
2,CCCC(N)=O,-0.21
3,CCOP(=S)(OCC)Oc1nc(Cl)n(C(C)C)n1,3.82
4,COc1cccc(C(=O)N(C)C)c1,1
5,O=Cc1ccccn1,0.44
6,CCOC(=O)c1ccc(O)cc1,2.47
7,CNCCNC,-0.62
8,O=C(NO)Nc1ccccc1,0.41
9,COC1CC(OC2CCC3(C)C(CCC4C3CCC3(C)C(C5=CC(=O)OC5)C(OC(C)=O)CC43O)C2)OC(C)C1OC(C)=O (stereo not given),2.95
10,C[Si](C)(C)Cc1ccccc1,4.13
11,CN(C)c1ccc2c(c1)C(c1ccccc1Cl)=NCC(=O)N2C,2.72
12,CC(C)OC(=O)n1cnc(CC(NC(=O)C2CCC(=O)N2)C(=O)N2CCCC2C(N)=O)c1 (stereo not given),-0.8
13,O=Nc1ccc2ccccc2c1O,2.46
14,CCCCN(C)C,1.7
15,CCCOc1cccc(C=C(C(=O)OCC)C(=O)OCC)c1,4
16,c1ccc2[nH]ncc2c1,1.77
17,O=c1[nH]cc(Cl)c(=O)[nH]1,-0.35
18,NC(Cc1ccccc1)C(=O)OCn1ncc2c(=O)[nH]cnc21 (stereo not given),0.4
19,Nc1nc(N)nc(-c2cccc(C(F)(F)F)c2)n1,2.67
20,C[Se]c1ccccc1,2.87
21,O=c1[nH]ncc2ccccc12,0.75
22,CC(=O)c1ccccc1O,1.92
23,CC(=O)CC(=O)C(C)(C)C,1.67

row,SMILES,logP
1,Cc1nc(N)nc(N)c1C12CC3CC(CC(C3)C1)C2,2.64
2,CC1(C)Cc2cccc(O)c2O1,2.08
3,CCN1CC(C(O)C(CC2CCCCC2)NC(=O)C(Cc2cnc[nH]2)NC(=O)C(CC(=O)N2CC(OCOC)C(OCOC)C2)Cc2ccccc2)OC1=O (stereo not given),2.31
4,CN1CC(=O)NC1=N,-1.76
5,COC(=O)c1c[nH]c(C)c1,1.96
6,COP(=S)(OC)Oc1ccc(S(=O)(=O)N(C)C)cc1,2.23
7,CC[C@H](C)[C@H](NC(=O)[C@H](CC(C)C)NC(C)=O)C(N)=O (Ac-Leu-Ile-NH2),0.68
8,CC(C)OC(=O)Nc1ccccc1,2.6
9,COC(=O)CCCCC(C)=O,0.55
10,CSc1cccc(OCC(=O)O)c1,1.9
11,O=C(Nc1ncnc2c1ncn2[C@H]1C[C@H](O)[C@@H](CO)O1)c1ccccc1,0.22
12,O=C1C=CC(=O)C=C1,0.2
13,Cc1cscn1,0.97
14,Cc1ccc(N)nc1,1.02
15,CC(=O)OC(OC(C)=O)c1ccccc1,1.62
16,CN(C)C(=O)Nc1cccc([N+](=O)[O-])c1,1.46
17,O=COc1ccccc1,1.26
18,CC1(C)CCC(C)(C)O1,2.06
19,CCNCCc1cccnc1,0.54
20,Cc1ccccc1C(=O)O,2.46
21,Nc1cccc(CO)c1,-0.05
22,CC(=O)NC1=CC(=O)c2ccccc2C1=O,1.29
23,C[C@](N)(C(=O)O)c1cccc2ccccc12,-0.22

row,SMILES,logP
1,CCOC(=O)C(=Cc1ccc(OC)cc1OC)C(C)=O,2.41
2,OCCCCc1cccnc1,0.92
3,CCN(CC)CC,1.45
4,CC(C)CCn1cnc([N+](=O)[O-])n1,1.34
5,CC(=O)OCC1=C(C(=O)O)N2C(=O)[C@@H](NC(=O)CC#N)[C@H]2SC1,-0.45
6,COc1ccccc1OCC(=O)O,0.98
7,Nc1ccc(S(=O)(=O)c2ccc(N)cc2)cc1,0.97
8,CCCN(CCC)C1CCOc2c(O)cccc21 (stereo not given),3.3
9,C=CC(=O)OC,0.8
10,CCOC(=O)OCC,1.21
11,C1=CCCCC1,2.86
12,CCc1cc(OP(=S)(OC)OC)ccc1[N+](=O)[O-],3.74
13,Clc1cc(Cl)c(Cl)c(-c2c(Cl)c(Cl)c(Cl)c(Cl)c2Cl)c1Cl,8.16
14,Cc1ccccc1NS(=O)(=O)c1ccc(N)cc1,2.03
15,CCc1cccs1,2.87
16,CCCCC(NC(Cc1ccccc1)C(=O)N1CCC(OCOC)CC1)C(=O)NC(CC1CCCCC1)C(O)CC(C(=O)NCCNc1noc(N)n1)C(C)C (stereo not given),4.11
17,Oc1ccc(Cl)cc1Cc1cc(Cl)ccc1O,4.26
18,CC(C)NC(=O)c1cccnc1,0.59
19,NC(=O)c1[nH]cnc1N,-1.1
20,O=C1CNC(=O)N1,-1.69
21,O=c1nccc[nH]1,-1.62
22,Oc1cccc(I)c1,2.93
23,Clc1cc(Cl)c(Cl)cc1Cl,4.64

row,SMILES,logP
1,CC(=O)NC1CC(=O)N(c2ccccc2)C1=O (stereo not given),-0.33
2,Cc1ccc(C(N)=O)cc1,1.18
3,CN(C)C(N(C)C)=S(I)c1ccccc1Cl (stereo not given),-0.19
4,Ic1nc(I)c(I)[nH]1,2.78
5,O=C1c2ccccc2C(=O)C1c1ccccc1,2.9
6,C=CCC1=C(C)C(OC(=O)C2C(C=C(C)C)C2(C)C)CC1=O (stereo not given),4.78
7,CN(C)CCOC(=O)c1ccccc1,2.06
8,CNc1nc(NC(C)(C)C)nc(SC(F)F)n1,3.91
9,CCc1ccc(S(N)(=O)=O)cc1,1.31
10,CC(N)=S,-0.26
11,CCCCC1CC(C(=O)NC(C(C)Cl)C2OC(SC)C(O)C(O)C2O)N(CC)C1 (stereo not given),3.21
12,C(=Cc1ccccn1)c1ccccn1,2.11
13,O=[N+]([O-])c1nccn1CC(F)CO (stereo not given),-0.38
14,CNc1nc(NC(C)C)nc(SC(F)F)n1,3.27
15,CC(=O)c1ccsc1,1.24
16,CN(C)c1ccc([N+](=O)[O-])cc1,2.27
17,O=C(CO)NCc1ccccc1,0.55
18,c1ccc(OP2OCCO2)cc1,1.42
19,Cc1cccc(C(=O)NN)c1,0.74
20,CCC(C)NP(=O)(OC)Oc1cc(Cl)c(Cl)cc1Cl (stereo not given),3.99
21,C=C(C=O)CC,1.24
22,ClCC(Cl)Cl,1.89

# Same assay, conditions: pH 7.2
row,SMILES,logD
1,COC(=O)C(c1ccccc1)C1CCCCN1 (stereo not given),0.2
